{"source": "paper PMC12628652", "about": "“A Validated UPLC‐MS/MS Method for Monitoring Temozolomide and Perillyl Alcohol Metabolites in Biological Matrices: Insights From a Preclinical Pharmacokinetic Study” (Biomedical Chromatography, 2025)", "key": {"[1]": {"test": "Pharmacokinetic study in rats after single oral administration of POH and TMZ (plasma, UPLC-MS/MS)", "type": "in vivo, Male Wistar rats", "settings": "rat plasma, single oral dose POH 47 mg/kg and TMZ 2 mg/kg, n = 6", "description": "Approximately 200 μL of whole blood was collected from the tail vein of each rat. Samples were centrifuged at 3500 rpm for 10 min at 20°C to separate the plasma. Plasma samples were then subjected to liquid–liquid extraction with ACN. The mixture was centrifuged again at 3500 rpm for 10 min at 4°C. The resulting supernatant was filtered through hydrophobic 0.22 μm membranes and transferred to autosampler vials. A 2 μL aliquot of each sample was injected into the UPLC‐MS/MS system for analysis.\nThawed plasma samples (50 μL) were also prepared by protein precipitation. Each sample was mixed with 50 μL of IS solution and 900 μL of ACN, followed by centrifugation at 3500 rpm for 10 min at 20°C. The supernatants were filtered and analyzed as described. All dilutions were performed based on analyte concentration to ensure compliance with the method's validated dynamic range.\nThe pharmacokinetic and biodistribution study was conducted in accordance with ethical guidelines and approved by the Animal Ethics Committee of the Universidade Estadual do Centro‐Oeste, Brazil (Protocol No. 026/2023). Male Wistar rats (n = 6 for pharmacokinetics; n = 4 for biodistribution), weighing approximately 200 g, were housed under controlled environmental conditions (12 h light/dark cycle, 35% relative humidity, and temperature of 23°C ± 2°C). Animals had free access to food and water, which were withheld 10 h prior to drug administration and resumed 2 h afterward.\nEach animal received a single oral dose of POH (47 mg/kg) and TMZ (2 mg/kg). For pharmacokinetic profiling, blood samples were collected via the tail vein into heparinized tubes at predefined time points: 0.5, 1, 2, 4, 8, 12, and 24 h post‐administration. For biodistribution analysis, a separate cohort of rats (n = 4) was sacrificed 4 h after dosing. Organs, including the brain, liver, lungs, kidneys, and spleen, were collected, homogenized, and stored at −20°C for subsequent quantification, as detailed in Section 3.2.\nPharmacokinetic parameters were calculated using non‐compartmental analysis with the PKSolver plugin for Microsoft Excel. The following parameters were determined: area under the plasma concentration–time curve from 0 to 24 h (AUC0–24h), maximum plasma concentration (Cmax), time to reach Cmax (tmax), elimination half‐life (t1/2), volume of distribution (VD), and total clearance (CL)."}, "[2]": {"test": "Stability of analytes in rat plasma and tissue matrices (freeze-thaw, bench-top, autosampler)", "type": "physicochemical", "settings": "for Stability (ER %) Autosampler: 10°C for 24 h; for Stability (ER %) Bench-top: room temperature for 6 h; for Stability (ER %) Freeze/thaw: three freeze–thaw cycles over 24-h intervals", "description": "QC samples were prepared by spiking blank rat plasma with PA, AIC, and TMZ at three concentration levels: 30, 80, and 200 ng/mL. Internal standards (IS1 and IS2) were added to each sample at a final concentration of 100 ng/mL. Whole blood was obtained from untreated anesthetized rats that were euthanized as part of the study protocol. Blood samples were collected into heparinized tubes and centrifuged at 3500 rpm for 10 min at 20°C to separate plasma. Organs including the brain, lungs, kidneys, spleen, and liver were promptly excised and homogenized using a Marconi mechanical tissue homogenizer (5 mm probe) in phosphate‐buffered saline (PBS, pH 7.4) at a 1:5 (w/v) tissue‐to‐buffer ratio.\nFor each matrix sample, 50 μL of homogenate or plasma was mixed with 50 μL of internal standard (IS) solution (100 ng/mL), followed by the addition of the respective working solution to reach the target analyte concentration. The volume was adjusted to 1 mL using an appropriate solvent mixture. Samples were centrifuged again at 3500 rpm for 10 min at 4°C. The resulting supernatants were filtered through 0.22 μm membrane filters prior to chromatographic analysis. All calibration standards and QC samples were prepared freshly on the day of analysis to minimize analyte degradation.\nThe stability of PA, AIC, and TMZ in rat plasma was assessed under the following conditions using low, medium, and high QC levels: (1) Freeze–thaw stability: Three freeze–thaw cycles over 24‐h intervals; (2) Bench‐top stability: Storage at room temperature for 6 h; (3) Autosampler stability: Storage at 10°C for 24 h. Analytes were considered stable if the relative error (RE%) remained within ±15% (Tiwari and Tiwari [2010])."}, "[3]": {"settings": "rat brain homogenate, 200 ng/mL"}, "[4]": {"settings": "rat kidney homogenate, 30 ng/mL"}, "[5]": {"settings": "rat kidney homogenate, 80 ng/mL"}, "[6]": {"settings": "rat kidney homogenate, 200 ng/mL"}, "[7]": {"settings": "rat liver homogenate, 200 ng/mL"}, "[8]": {"settings": "rat spleen homogenate, 30 ng/mL"}, "[9]": {"settings": "rat spleen homogenate, 80 ng/mL"}, "[10]": {"settings": "rat spleen homogenate, 200 ng/mL"}}}
{"smiles": "Cn1nnc2c(C(N)=O)ncn2c1=O", "note": "[TMZ, Temozolomide]", "values": [{"measurement": "Cmax", "setting": "[1]; male, Wistar", "value": 1450, "unit": "ng/mL"}, {"measurement": "Tmax", "setting": "[1]; male, Wistar", "value": 1, "unit": "h"}, {"measurement": "half-life", "setting": "[1]; male, Wistar", "value": 18.4, "unit": "h"}, {"measurement": "k el", "setting": "[1]; male, Wistar", "value": "1.03e-05", "unit": "s⁻¹"}, {"measurement": "AUC(0-t)", "setting": "[1]; male, Wistar, read-out: AUC0–24h", "value": 8170, "unit": "ng·h/mL"}, {"measurement": "CL", "setting": "[1]", "value": 1.5, "unit": "mL/min/kg"}, {"measurement": "Vd", "setting": "[1]", "value": 1.75, "unit": "L/kg"}, {"measurement": "Stability (ER %) Autosampler", "setting": "[2]; rat brain homogenate, 30 ng/mL", "value": 1.65, "unit": "%"}, {"measurement": "Stability (ER %) Bench-top", "setting": "[2]; rat brain homogenate, 30 ng/mL", "value": 1.48, "unit": "%"}, {"measurement": "Stability (ER %) Freeze/thaw", "setting": "[2]; rat brain homogenate, 30 ng/mL", "value": 9.76, "unit": "%"}, {"measurement": "Stability (ER %) Autosampler", "setting": "[2]; rat brain homogenate, 80 ng/mL", "value": 1.89, "unit": "%"}, {"measurement": "Stability (ER %) Bench-top", "setting": "[2]; rat brain homogenate, 80 ng/mL", "value": 7.73, "unit": "%"}, {"measurement": "Stability (ER %) Freeze/thaw", "setting": "[2]; rat brain homogenate, 80 ng/mL", "value": 0.84, "unit": "%"}, {"measurement": "Stability (ER %) Autosampler", "setting": "[2]; [3]", "value": 4.29, "unit": "%"}, {"measurement": "Stability (ER %) Bench-top", "setting": "[2]; [3]", "value": 2.32, "unit": "%"}, {"measurement": "Stability (ER %) Freeze/thaw", "setting": "[2]; [3]", "value": 4.42, "unit": "%"}, {"measurement": "Stability (ER %) Autosampler", "setting": "[2]; [4]", "value": 1.41, "unit": "%"}, {"measurement": "Stability (ER %) Bench-top", "setting": "[2]; [4]", "value": 1.99, "unit": "%"}, {"measurement": "Stability (ER %) Freeze/thaw", "setting": "[2]; [4]", "value": 3.69, "unit": "%"}, {"measurement": "Stability (ER %) Autosampler", "setting": "[2]; [5]", "value": 3.14, "unit": "%"}, {"measurement": "Stability (ER %) Bench-top", "setting": "[2]; [5]", "value": 8.22, "unit": "%"}, {"measurement": "Stability (ER %) Freeze/thaw", "setting": "[2]; [5]", "value": 9.44, "unit": "%"}, {"measurement": "Stability (ER %) Autosampler", "setting": "[2]; [6]", "value": 4.92, "unit": "%"}, {"measurement": "Stability (ER %) Bench-top", "setting": "[2]; [6]", "value": 3.77, "unit": "%"}, {"measurement": "Stability (ER %) Freeze/thaw", "setting": "[2]; [6]", "value": 4.52, "unit": "%"}, {"measurement": "Stability (ER %) Autosampler", "setting": "[2]; rat liver homogenate, 30 ng/mL", "value": 3.82, "unit": "%"}, {"measurement": "Stability (ER %) Bench-top", "setting": "[2]; rat liver homogenate, 30 ng/mL", "value": 1.49, "unit": "%"}, {"measurement": "Stability (ER %) Freeze/thaw", "setting": "[2]; rat liver homogenate, 30 ng/mL", "value": 5.67, "unit": "%"}, {"measurement": "Stability (ER %) Autosampler", "setting": "[2]; rat liver homogenate, 80 ng/mL", "value": 4.07, "unit": "%"}, {"measurement": "Stability (ER %) Bench-top", "setting": "[2]; rat liver homogenate, 80 ng/mL", "value": 6.41, "unit": "%"}, {"measurement": "Stability (ER %) Freeze/thaw", "setting": "[2]; rat liver homogenate, 80 ng/mL", "value": 8.17, "unit": "%"}, {"measurement": "Stability (ER %) Autosampler", "setting": "[2]; [7]", "value": 3.33, "unit": "%"}, {"measurement": "Stability (ER %) Bench-top", "setting": "[2]; [7]", "value": 1.57, "unit": "%"}, {"measurement": "Stability (ER %) Freeze/thaw", "setting": "[2]; [7]", "value": 1.54, "unit": "%"}, {"measurement": "Stability (ER %) Autosampler", "setting": "[2]; rat lung homogenate, 30 ng/mL", "value": 4.82, "unit": "%"}, {"measurement": "Stability (ER %) Bench-top", "setting": "[2]; rat lung homogenate, 30 ng/mL", "value": 7.99, "unit": "%"}, {"measurement": "Stability (ER %) Freeze/thaw", "setting": "[2]; rat lung homogenate, 30 ng/mL", "value": 6.24, "unit": "%"}, {"measurement": "Stability (ER %) Autosampler", "setting": "[2]; rat lung homogenate, 80 ng/mL", "value": 3.02, "unit": "%"}, {"measurement": "Stability (ER %) Bench-top", "setting": "[2]; rat lung homogenate, 80 ng/mL", "value": 9.32, "unit": "%"}, {"measurement": "Stability (ER %) Freeze/thaw", "setting": "[2]; rat lung homogenate, 80 ng/mL", "value": 7.19, "unit": "%"}, {"measurement": "Stability (ER %) Autosampler", "setting": "[2]; rat lung homogenate, 200 ng/mL", "value": 2.51, "unit": "%"}, {"measurement": "Stability (ER %) Bench-top", "setting": "[2]; rat lung homogenate, 200 ng/mL", "value": 5.54, "unit": "%"}, {"measurement": "Stability (ER %) Freeze/thaw", "setting": "[2]; rat lung homogenate, 200 ng/mL", "value": 1.34, "unit": "%"}, {"measurement": "Stability (ER %) Autosampler", "setting": "[2]; rat plasma, 30 ng/mL", "value": 12.84, "unit": "%"}, {"measurement": "Stability (ER %) Bench-top", "setting": "[2]; rat plasma, 30 ng/mL", "value": 1.39, "unit": "%"}, {"measurement": "Stability (ER %) Freeze/thaw", "setting": "[2]; rat plasma, 30 ng/mL", "value": 3.94, "unit": "%"}, {"measurement": "Stability (ER %) Autosampler", "setting": "[2]; rat plasma, 80 ng/mL", "value": 5.39, "unit": "%"}, {"measurement": "Stability (ER %) Bench-top", "setting": "[2]; rat plasma, 80 ng/mL", "value": 3.94, "unit": "%"}, {"measurement": "Stability (ER %) Freeze/thaw", "setting": "[2]; rat plasma, 80 ng/mL", "value": 4.29, "unit": "%"}, {"measurement": "Stability (ER %) Autosampler", "setting": "[2]; rat plasma, 200 ng/mL", "value": 13.24, "unit": "%"}, {"measurement": "Stability (ER %) Bench-top", "setting": "[2]; rat plasma, 200 ng/mL", "value": 1.94, "unit": "%"}, {"measurement": "Stability (ER %) Freeze/thaw", "setting": "[2]; rat plasma, 200 ng/mL", "value": 9.83, "unit": "%"}, {"measurement": "Stability (ER %) Autosampler", "setting": "[2]; [8]", "value": 2.64, "unit": "%"}, {"measurement": "Stability (ER %) Bench-top", "setting": "[2]; [8]", "value": 6.41, "unit": "%"}, {"measurement": "Stability (ER %) Freeze/thaw", "setting": "[2]; [8]", "value": 5.86, "unit": "%"}, {"measurement": "Stability (ER %) Autosampler", "setting": "[2]; [9]", "value": 2.61, "unit": "%"}, {"measurement": "Stability (ER %) Bench-top", "setting": "[2]; [9]", "value": 1.35, "unit": "%"}, {"measurement": "Stability (ER %) Freeze/thaw", "setting": "[2]; [9]", "value": 1.35, "unit": "%"}, {"measurement": "Stability (ER %) Autosampler", "setting": "[2]; [10]", "value": 2.22, "unit": "%"}, {"measurement": "Stability (ER %) Bench-top", "setting": "[2]; [10]", "value": 1.05, "unit": "%"}, {"measurement": "Stability (ER %) Freeze/thaw", "setting": "[2]; [10]", "value": 3.86, "unit": "%"}]}
